This is an account of results in paper PMC12118597 (Science Advances, 2025).

Where two headings read alike, the source gives them in different places.

The target of the assay is SARS-CoV-2 NSP3 macrodomain (Mac1) (Severe acute respiratory syndrome coronavirus 2, UniProt P0DTD1). The format is binding. As to conditions: for 1-BDC: PanDDA background density correction factor; for PanDDA run, overall: Hit / PanDDA run, overall: Modeled / PanDDA run, overall: Modeling comment / PanDDA run, DMSO background map: 1-BDC / PanDDA run, DMSO background map: Hit / PanDDA run, TFA/DMSO background map: 1-BDC / PanDDA run, TFA/DMSO background map: Hit: crystal soak 10 mM; for PanDDA run, overall: Hit / PanDDA run, overall: Modeled / PanDDA run, overall: Modeling comment: P43 crystal form; for Total number of conformations: ligand conformations modeled in the crystal structure; for 2*(1-BDC) (%): occupancy estimate from PanDDA; for Refined ligand occupancy (%): refined crystallographic occupancy.

Setting [1] is: TRUE = crystal structure with ligand obtained.
[2] abbreviates: site of ligand in X-ray crystal structure.
The mark [3] stands for this setting: ligand-bound crystal structure obtained (TRUE).
Setting [4] is: site occupied in X-ray crystal structure.

Turning to `OCC(CC1CC1)Nc1ncnc2[nH]ccc12` (centres unmarked) [AVI-3662], the “Occupancy difference (refined_occupancy - 2*(1-BDC))” value (“Occupancy difference” below) is on record as 0; the 1-BDC is reported as 0.14; the “PanDDA run, overall: Hit” value is “TRUE”; the “PanDDA run, overall: Modeled” value was “TRUE”. Also, the “PanDDA run, overall: Modeling comment” value is “Distal site, weak density, not modeled”; the “PanDDA run, DMSO background map: 1-BDC” value is reported as 0.14; the “PanDDA run, DMSO background map: Hit” value is “TRUE”; the “Total number of conformations” value came out at 1. Besides, the “2*(1-BDC) (%)” value is 28% and the “Refined ligand occupancy (%)” value amounted to 28%. Moreover, under setting [1], the X-ray crystal structure entry is “TRUE”. For the same compound, the Binding site entry under setting [2] is recorded as “Adenosine”.
With `OCC(CC1CCOC1)Nc1ncnc2[nH]ccc12` (centres unmarked) [AVI-3665], the “Occupancy difference” value is 0; the 1-BDC is 0.17; the “PanDDA run, overall: Hit” value is recorded as “TRUE”; the “PanDDA run, overall: Modeled” value is “TRUE”. Moreover, the “PanDDA run, DMSO background map: 1-BDC” value is 0.17; the “PanDDA run, DMSO background map: Hit” value is recorded as “TRUE”; the “Total number of conformations” value amounted to 1; the “2*(1-BDC) (%)” value is 34%. The “Refined ligand occupancy (%)” value is 34%. Further, the X-ray crystal structure entry under setting [1] is “TRUE”. In addition, under setting [2], the Binding site result was “Adenosine”.
As to `CCC(Nc1ncnc2[nH]ccc12)C(C)(C)O` (centres unmarked) [AVI-3667], the “Occupancy difference” value stood at 0; the 1-BDC is listed as 0.14; the “PanDDA run, overall: Hit” value is “TRUE”; the “PanDDA run, overall: Modeled” value is listed as “TRUE”. In addition, the “PanDDA run, DMSO background map: 1-BDC” value was found to be 0.14; the “PanDDA run, DMSO background map: Hit” value is recorded as “TRUE”; the “Total number of conformations” value worked out at 1; the “2*(1-BDC) (%)” value is 28%. In addition, the “Refined ligand occupancy (%)” value stood at 28%. Besides, the X-ray crystal structure entry under setting [1] was “TRUE”. Under setting [2], the Binding site entry is on record as “Adenosine”.
`CC(C)CCC(CO)Nc1ncnc2[nH]ccc12.O=C(O)C(F)(F)F` (centres unmarked) [AVI-3668]: the “PanDDA run, overall: Hit” value was “TRUE”; the “PanDDA run, overall: Modeling comment” value is reported as “Weak density, not modeled”; the “PanDDA run, DMSO background map: 1-BDC” value amounted to 0.15; the “PanDDA run, DMSO background map: Hit” value is recorded as “TRUE”. Moreover, the “PanDDA run, TFA/DMSO background map: 1-BDC” value is recorded as 0.09 and the “PanDDA run, TFA/DMSO background map: Hit” value is “TRUE”.
For `OCC(Cc1nccs1)Nc1ncnc2[nH]ccc12` (centres unmarked) [AVI-3673], the “Occupancy difference” value was 0; the 1-BDC worked out at 0.19; the “PanDDA run, overall: Hit” value is recorded as “TRUE”; the “PanDDA run, overall: Modeled” value is on record as “TRUE”. The “PanDDA run, DMSO background map: 1-BDC” value worked out at 0.19; the “PanDDA run, DMSO background map: Hit” value is “TRUE”; the “Total number of conformations” value came to 1; the “2*(1-BDC) (%)” value is recorded as 38%. The “Refined ligand occupancy (%)” value is listed as 38%. Further, the X-ray crystal structure result under setting [1] is listed as “TRUE”. Further, the Binding site entry under setting [2] is “Adenosine”.
For the compound `Cc1ccccc1CC(CO)Nc1ncnc2[nH]ccc12` (centres unmarked) [AVI-3674], the “Occupancy difference” value is reported as 0; the 1-BDC is 0.19; the “PanDDA run, overall: Hit” value is on record as “TRUE”; the “PanDDA run, overall: Modeled” value is listed as “TRUE”. Also, the “PanDDA run, DMSO background map: 1-BDC” value is 0.19; the “PanDDA run, DMSO background map: Hit” value is “TRUE”; the “Total number of conformations” value is listed as 1; the “2*(1-BDC) (%)” value is listed as 38%. Moreover, the “Refined ligand occupancy (%)” value is recorded as 38%. Under setting [1], the X-ray crystal structure entry was “TRUE”. Under setting [2], the Binding site result was “Adenosine”.
Consider `O=C(O)C(F)(F)F.OCC(CC1CCOCC1)Nc1ncnc2[nH]ccc12` (centres unmarked) [AVI-3676], for which the “PanDDA run, overall: Modeling comment” value is on record as “TFA only”.
Take `OCC(Nc1ncnc2[nH]ccc12)C1CCOC1` (centres unmarked) [AVI-3679]: the “Occupancy difference” value amounted to 0; the 1-BDC turned out to be 0.16; the “PanDDA run, overall: Hit” value is listed as “TRUE”; the “PanDDA run, overall: Modeled” value is recorded as “TRUE”. Also, the “PanDDA run, DMSO background map: 1-BDC” value stood at 0.16; the “PanDDA run, DMSO background map: Hit” value is on record as “TRUE”; the “Total number of conformations” value is given as 1; the “2*(1-BDC) (%)” value is recorded as 32%. The “Refined ligand occupancy (%)” value is 32%. Further, the X-ray crystal structure entry under setting [1] is recorded as “TRUE”. For the same compound, the Binding site result under setting [2] is on record as “Adenosine”.
As to `O=C(O)C(F)(F)F.OCC12CC(CN1c1ncnc3[nH]ccc13)C2` [AVI-3681], the “Occupancy difference” value is given as -14; the 1-BDC was found to be 0.22; the “PanDDA run, overall: Hit” value is listed as “TRUE”; the “PanDDA run, overall: Modeled” value is on record as “TRUE”. Besides, the “PanDDA run, overall: Modeling comment” value is given as “Distal site, weak density, not modeled”; the “PanDDA run, DMSO background map: 1-BDC” value stood at 0.22; the “PanDDA run, DMSO background map: Hit” value is listed as “TRUE”; the “Total number of conformations” value was 1. Also, the “2*(1-BDC) (%)” value is 44% and the “Refined ligand occupancy (%)” value was determined as 30%. Also, the X-ray crystal structure result under setting [3] is “TRUE”. Moreover, the Binding site result under setting [4] is given as “Adenosine”.
As for `Cc1ccc(CC(CO)Nc2ncnc3[nH]ccc23)cc1` (centres unmarked) [AVI-3683], the “Occupancy difference” value worked out at 20; the 1-BDC turned out to be 0.15; the “PanDDA run, overall: Hit” value was “TRUE”; the “PanDDA run, overall: Modeled” value is “TRUE”. The “PanDDA run, DMSO background map: 1-BDC” value is 0.15; the “PanDDA run, DMSO background map: Hit” value is “TRUE”; the “Total number of conformations” value amounted to 2; the “2*(1-BDC) (%)” value is recorded as 30%. Also, the “Refined ligand occupancy (%)” value stood at 50%. In addition, the X-ray crystal structure entry under setting [1] is listed as “TRUE”. Further, the Binding site result under setting [2] was “Adenosine”.
Turning to `Cc1ccc(CC(CO)Nc2ncnc3[nH]ccc23)cc1C` (centres unmarked) [AVI-3684], the “Occupancy difference” value came out at 20; the 1-BDC is given as 0.15; the “PanDDA run, overall: Hit” value is “TRUE”; the “PanDDA run, overall: Modeled” value is “TRUE”. Also, the “PanDDA run, DMSO background map: 1-BDC” value was found to be 0.15; the “PanDDA run, DMSO background map: Hit” value is on record as “TRUE”; the “Total number of conformations” value is 2; the “2*(1-BDC) (%)” value is given as 30%. Further, the “Refined ligand occupancy (%)” value is 50%. Under setting [1], the X-ray crystal structure result is recorded as “TRUE”. Besides, the Binding site entry under setting [2] is “Adenosine”.
With `OCC1CCCN1c1ncnc2[nH]ccc12` (centres unmarked) [AVI-3685], the “Occupancy difference” value is given as 20; the 1-BDC worked out at 0.25; the “PanDDA run, overall: Hit” value was “TRUE”; the “PanDDA run, overall: Modeled” value is “TRUE”. Also, the “PanDDA run, DMSO background map: 1-BDC” value stood at 0.25; the “PanDDA run, DMSO background map: Hit” value was “TRUE”; the “Total number of conformations” value is recorded as 1; the “2*(1-BDC) (%)” value was 50%. The “Refined ligand occupancy (%)” value amounted to 70%. The X-ray crystal structure entry under setting [3] was “TRUE”. The Binding site result under setting [4] is on record as “Adenosine”.
For the compound `OCC(Cc1ccc(I)cc1)Nc1ncnc2[nH]ccc12` (centres unmarked) [AVI-3686], the “Occupancy difference” value is given as 0; the 1-BDC worked out at 0.2; the “PanDDA run, overall: Hit” value is given as “TRUE”; the “PanDDA run, overall: Modeled” value is recorded as “TRUE”. The “PanDDA run, DMSO background map: 1-BDC” value stood at 0.2; the “PanDDA run, DMSO background map: Hit” value was “TRUE”; the “Total number of conformations” value worked out at 2; the “2*(1-BDC) (%)” value is 40%. Also, the “Refined ligand occupancy (%)” value is 40%. In addition, the X-ray crystal structure entry under setting [1] is listed as “TRUE”. Under setting [2], the Binding site result is given as “Adenosine”.
In the case of `O=C(O)C(F)(F)F.OCC(Nc1ncnc2[nH]ccc12)C(O)C1CCCCC1` (centres unmarked) [AVI-3687], the “PanDDA run, overall: Hit” value is recorded as “TRUE”; the “PanDDA run, overall: Modeling comment” value was “Weak density, not modeled”; the “PanDDA run, DMSO background map: 1-BDC” value was found to be 0.15; the “PanDDA run, DMSO background map: Hit” value is recorded as “TRUE”. Also, the “PanDDA run, TFA/DMSO background map: 1-BDC” value is listed as 0.08 and the “PanDDA run, TFA/DMSO background map: Hit” value is listed as “TRUE”.
Regarding `O=C(O)C(F)(F)F.OCC1(Nc2ncnc3[nH]ccc23)CC1` [AVI-3688], the “Occupancy difference” value worked out at 20; the 1-BDC is on record as 0.2; the “PanDDA run, overall: Hit” value is “TRUE”; the “PanDDA run, overall: Modeled” value is given as “TRUE”. The “PanDDA run, DMSO background map: 1-BDC” value worked out at 0.2; the “PanDDA run, DMSO background map: Hit” value is listed as “TRUE”; the “Total number of conformations” value is 1; the “2*(1-BDC) (%)” value is reported as 40%. Moreover, the “Refined ligand occupancy (%)” value was determined as 60%. The X-ray crystal structure result under setting [1] is listed as “TRUE”. The Binding site result under setting [2] is recorded as “Adenosine”.
For the compound `OCC(CC1CCCCC1)Nc1ncnc2[nH]ccc12` (centres unmarked) [AVI-3690], the “Occupancy difference” value turned out to be 0; the 1-BDC is reported as 0.12; the “PanDDA run, overall: Hit” value was “TRUE”; the “PanDDA run, overall: Modeled” value is “TRUE”. For the same compound, the “PanDDA run, overall: Modeling comment” value is “Weak density for alternative ligand conformation”; the “PanDDA run, DMSO background map: 1-BDC” value worked out at 0.12; the “PanDDA run, DMSO background map: Hit” value is given as “TRUE”; the “Total number of conformations” value turned out to be 1. For the same compound, the “2*(1-BDC) (%)” value is 24% and the “Refined ligand occupancy (%)” value was determined as 24%. The X-ray crystal structure result under setting [1] is “TRUE”. The Binding site entry under setting [2] was “Adenosine”.
With `OCC(CC1CCCC1)Nc1ncnc2[nH]ccc12` (centres unmarked) [AVI-3691], the “Occupancy difference” value is on record as -16; the 1-BDC is 0.18; the “PanDDA run, overall: Hit” value is “TRUE”; the “PanDDA run, overall: Modeled” value is given as “TRUE”. The “PanDDA run, DMSO background map: 1-BDC” value amounted to 0.18; the “PanDDA run, DMSO background map: Hit” value was “TRUE”; the “Total number of conformations” value came out at 1; the “2*(1-BDC) (%)” value was 36%. The “Refined ligand occupancy (%)” value is reported as 20%. Also, the X-ray crystal structure result under setting [1] was “TRUE”. Besides, under setting [2], the Binding site entry is on record as “Adenosine”.
